Reference: patent US11285172B2, “Method for treating inflammatory diseases” (MacKay Memorial Hospital, priority 2019, dated 2022)
Where a name gives a salt, the structure may show the parent alone.

Tested on: FANCs internalization in HAECs
Assay: Endocytic pathway inhibition: FANC internalization in HAECs after endocytosis inhibitor pre-treatment (flow cytometry, confocal)
Assay type: cell-based, human
Details: for effect on FANCs internalization: complete medium, inhibitor pre-treatment 45 min (filipin 30 min); for effect on FANCs internalization / decrement of FANCs internalization compared to FANCs control: then FANCs 80 min; for decrement of FANCs internalization compared to FANCs control: 45 min inhibitor pre-treatment
Protocol: In certain experiments, HAECs were treated by endocytosis inhibitors to inhibit endocytic pathways. Endocytosis inhibitors are chlorpromazine hydrochloride (10 μg/ml, C8138), filipin (10 μg/ml, F9765), amiloride (10 μmol/L A7410), and genistein (50 μmol/L G6649; all obtained from Sigma-Aldrich).
Cells were seeded onto 2% gelatin-coated glass coverslips and incubated for 24 hours and applied to FANCs treatments. Cells were fixed with 1% paraformaldehyde, washed with PBS, then blocked with 5% bovine serum albumin (BSA) for 30 minutes. Then the cell culture was incubated with primary antibodies against VE-cadherin at 37° C. for 2 hours, followed by application of FITC-conjugated secondary antibody (Chemicon, Temecula, Calif., USA) for 50 minutes under room temperature. After one hour for the pre-treatment by above-mentioned endocytosis inhibitor, HAECs were incubated with FANCs for 80 minutes followed by washed with PBS and fixed with 1% paraformaldehyde. Afterwards, cells were stained with bisbenzamide (18.7 μmol/L) for 15 minutes and then washed with PBS buffer. Then, the cells were mounted by using 60% glycerol (v/v) and examined by using a confocal microscope (Leica TCS SP5, Leica, Germany) with a 40× oil objective/1.25 aperture. The images were captured under room temperature.
After 45 minutes of inhibitors pre-treatment (except 30 minutes of filipin treatment), FANCs were added and the incubation continued for additional 80 minutes. Thereafter, cells were subject to flow cytometry (FIGS. 1A-1D). […] However, in low serum or no serum medium, internalization of FANCs was blocked by chlorpromazine hydrochloride (compared to FANCs control, 60% of decrement at 1% FBS medium and 51% of decrement at no serum medium; FIGS. 1B and 1C).

SMILES | effect on FANCs internalization (flow cytometry) | decrement of FANCs internalization compared to FANCs control (1% FBS medium, flow cytometry, HAECs) | punctate fluorescence signals of FANCs (confocal microscopy) (confocal microscopy, HAECs, FANCs 80 min after inhibitor pre-treatment) | decrement of FANCs internalization compared to FANCs control (no serum medium, flow cytometry, HAECs) | FANC internalization, dose dependence (only in low serum and no serum supplement culture environments, flow cytometry)
N=C(N)NC(=O)c1nc(Cl)c(N)nc1N [amiloride] | slighter effects |  |  |  | 
CCCCC[C@@H](O)[C@H]1C(=O)O[C@H](C)[C@@H](O)/C=C/C=C/C=C/C=C/C=C(\C)[C@@H](O)C[C@H](O)C[C@H](O)C[C@H](O)C[C@H](O)C[C@H](O)C[C@@H]1O [filipin] | slighter effects |  |  |  | 
O=c1c(-c2ccc(O)cc2)coc2cc(O)cc(O)c12 [genistein] | slighter effects |  |  |  | 
CN(C)CCCN1c2ccccc2Sc2ccc(Cl)cc21 [chlorpromazine hydrochloride] | slighter effects | 60% | down-regulated | 51% | attenuated FANC internalization in a dose-dependent manner
